Test results as given in patent publication US10898469B2, “Imidazolylamide derivative” (Sumitomo Dainippon Pharma Co., Ltd., priority 2016, dated 2021).
Where a name gives a salt, the structure may show the parent alone. Read-outs that look alike come from different tables or passages of the source.

Assays:
Format in all cases: cell-based, human
HT-29 cells = experiment: Inhibition test for sphere-forming ability of cancer cells (Test Example 1), HT-29; conditions: for IC50: concentration for 50% inhibition of cell proliferation, read-out: IC50 (μmol/L) HT-29 (Sphere IC50 value); for (100%-inhibition rate of cell proliferation) at 1 μmol/L, HT-29: value with %; for viability at 1 µM: read-out: (100%-inhibition rate of cell proliferation) at 1 μmol/L, 1 μmol/L, value with %
From the text: (§1) The reliable methods established for measuring the self-renewal ability of cells which is one of the CSC's properties include a method for measuring the sphere-forming ability of cancer cells in non-adherent condition in the absence of serum (Cancer Res 65, 5506-5511 (2005)). Human colorectal cancer-derived HCT-116 cells, human colon-adenocarcinoma-derived HT-29 cells, and human pharyngeal cancer-derived FaDu cells were available from American Type Culture Collection (ATCC). HCT-116 cells and HT-29 cells were cultured at 37° C. under 5% CO2 using the McCoy's 5a medium containing 10% fetal bovine serum (FBS) and 1% penicillin/streptomycin, and FaDu cells were cultured at 37° C. under 5% CO2 using the MEM medium containing 10% FBS, 1% non-essential amino acid, 1% sodium pyruvate, and 1% penicillin/streptomycin. HCT-116 cells, HT-29 cells, and FaDu cells were seeded in a 384 Well Black Clear Bottom Ultra-Low Attachment Microplate (Corning Cat. No. 3827) in an amount of 350-800 cells/well using the DMEM/F12 medium containing 2% B27 supplement (GIBCO), 20 ng/mL epidermal growth factor (EGF) (peprotech), 10 ng/mL basic fibroblast growth factor (bFGF) (peprotech), 5 μg/mL insulin (Sigma), and 1% penicillin/streptomycin. Each test compound was added into each well to adjust the final concentration of DMSO to 0.1%, and the cells were cultured for 4 days. The number of viable cells in each well was then measured with CellTiter-Glo® Luminescent Cell Viability Assay (Promega) to calculate the concentration of each test compound for 50% inhibition of cell proliferation (Sphere IC50 value; μmol/L).
(§2) The experiment of Test Example 1 was performed for each compound of each Example. The concentration of each test compound for 50% inhibition of cell proliferation (Sphere IC50 value; μmol/L) is shown in the following Table.

HCT-116 cells = experiment: Inhibition test for sphere-forming ability of cancer cells (Test Example 1), HCT-116; conditions: for IC50 / (100%-inhibition rate of cell proliferation) at 1 μmol/L, HCT-116 / viability at 1 µM: HCT-116 cells; for IC50: concentration for 50% inhibition of cell proliferation, read-out: IC50 (μmol/L) HCT-116 (Sphere IC50 value); for inhibitory effect on the sphere-forming ability of cancer cells: Test Example 1, summary in words, cell line not given (HCT-116, HT-29, FaDu tested); for (100%-inhibition rate of cell proliferation) at 1 μmol/L, HCT-116 / viability at 1 µM: value with %, 1 μmol/L; for viability at 1 µM: read-out: (100%-inhibition rate of cell proliferation) at 1 μmol/L
From the text: as §1, §2

FaDu cells = experiment: Inhibition test for sphere-forming ability of cancer cells (Test Example 1), FaDu; conditions: for IC50: concentration for 50% inhibition of cell proliferation, read-out: IC50 (μmol/L) FaDu (Sphere IC50 value); for (100%-inhibition rate of cell proliferation) at 1 μmol/L, FaDu: value with %; for viability at 1 µM: read-out: (100%-inhibition rate of cell proliferation) at 1 μmol/L, 1 μmol/L, value with %
From the text: as §1, §2

O=C(Nc1cn(Cc2cccc(C(F)(F)F)c2)cn1)c1cnc(Br)c(F)c1 [Example 227]
IC50 (HT-29 cells): 8 µmol/L | IC50 (HCT-116 cells): 9.06 µmol/L

Cc1ccc(F)c(Cn2cnc(NC(=O)/C=C/c3cccnc3)c2)c1F [Example 113]
IC50 (FaDu cells; Homo sapiens): > 10 µmol/L | IC50 (HT-29 cells; Homo sapiens): 0.53 µmol/L | IC50 (HCT-116 cells; Homo sapiens): 0.54 µmol/L

Cc1ccc(F)c(Cn2cnc(NC(=O)c3ccc(OCC(F)(F)F)nc3)c2)c1F [Example 223]
IC50 (FaDu cells): 0.81 µmol/L | IC50 (HT-29 cells): 0.65 µmol/L | IC50 (HCT-116 cells): 0.76 µmol/L

O=C(/C=C/c1ccccc1Cl)Nc1cn(Cc2cccc(Cl)c2)cn1 [Example 51]
IC50 (FaDu cells): 6.13 µmol/L | IC50 (HT-29 cells): 3.75 µmol/L | IC50 (HCT-116 cells): 7.2 µmol/L

CN(C)c1ccc(/C=C/C(=O)Nc2cn(Cc3cccc(Cl)c3)cn2)cc1 [Example 63]
IC50 (FaDu cells): 0.08 µmol/L | IC50 (HT-29 cells): 0.07 µmol/L | IC50 (HCT-116 cells): 0.53 µmol/L

O=C(/C=C/c1ccncc1)Nc1cn(Cc2cccc(Cl)c2)cn1 [Example 97]
IC50 (FaDu cells): 0.06 µmol/L | IC50 (HT-29 cells): 0.05 µmol/L | IC50 (HCT-116 cells): 0.08 µmol/L | inhibitory effect on the sphere-forming ability of cancer cells (HCT-116 cells): particularly potent inhibitory effect

O=C(/C=C/c1ccc(C(F)(F)F)cc1)Nc1cn(Cc2cccc(Cl)c2)cn1 [Example 48, (E)-N-(1-(3-Chlorobenzyl)-1H-imidazol-4-yl)-3-(4-(trifluoromethyl)phenyl)acrylamide]
IC50 (FaDu cells; Homo sapiens): 0.09 µmol/L | IC50 (HT-29 cells; Homo sapiens): 0.08 µmol/L | IC50 (HCT-116 cells; Homo sapiens): 0.76 µmol/L

O=C(/C=C/c1ccc(F)cc1F)Nc1cn(Cc2cccc(Cl)c2)cn1 [Example 69]
IC50 (FaDu cells): 0.54 µmol/L | IC50 (HT-29 cells): 0.38 µmol/L | IC50 (HCT-116 cells): 0.82 µmol/L

COc1ccc(C(=O)Nc2cn(Cc3cccc(C(F)(F)F)c3)cn2)cc1OC [Example 165]
(100%-inhibition rate of cell proliferation) at 1 μmol/L, FaDu (FaDu cells): 24.1% | (100%-inhibition rate of cell proliferation) at 1 μmol/L, HT-29 (HT-29 cells): 28.0% | (100%-inhibition rate of cell proliferation) at 1 μmol/L, HCT-116 (HCT-116 cells): 31.9%

COc1ccc(C(=O)Nc2cn(Cc3cccc(C)c3)cn2)cc1OC [Example 291]
(100%-inhibition rate of cell proliferation) at 1 μmol/L, FaDu (FaDu cells): 37.8% | (100%-inhibition rate of cell proliferation) at 1 μmol/L, HT-29 (HT-29 cells): 37.1% | (100%-inhibition rate of cell proliferation) at 1 μmol/L, HCT-116 (HCT-116 cells): 70.8%

Cc1cc(/C=C/C(=O)Nc2cn(Cc3cccc(Cl)c3)cn2)oc1C [Example 93]
IC50 (FaDu cells): 0.09 µmol/L | IC50 (HT-29 cells): 4.93 µmol/L | IC50 (HCT-116 cells): 0.82 µmol/L | inhibitory effect on the sphere-forming ability of cancer cells (HCT-116 cells): particularly potent inhibitory effect

COCCOc1ccc(C(=O)Nc2cn(Cc3cccc(Cl)c3)cn2)cc1 [Example 265, N-[1-(3-Chlorobenzyl)-1H-imidazol-4-yl]-4-(2-methoxyethoxy)benzamide]
viability at 1 µM (FaDu cells; Homo sapiens): 41.2% | viability at 1 µM (HT-29 cells; Homo sapiens): 33.1% | viability at 1 µM (HCT-116 cells; Homo sapiens): 41.7%

COc1ccc(C(=O)Nc2cn(Cc3ccc4c(c3)C(C)(C)CCC4(C)C)cn2)cc1OC [Example 172]
(100%-inhibition rate of cell proliferation) at 1 μmol/L, FaDu (FaDu cells): 42.3% | (100%-inhibition rate of cell proliferation) at 1 μmol/L, HT-29 (HT-29 cells): 16.6% | (100%-inhibition rate of cell proliferation) at 1 μmol/L, HCT-116 (HCT-116 cells): 34.3%

O=C(/C=C/c1cncc(Br)c1)Nc1cn(Cc2cccc(Cl)c2)cn1 [Example 45]
IC50 (FaDu cells; Homo sapiens): 0.81 µmol/L | IC50 (HT-29 cells; Homo sapiens): 0.88 µmol/L | IC50 (HCT-116 cells; Homo sapiens): 6.38 µmol/L

CC(C)Oc1ccc(C(=O)Nc2cn(Cc3cccc(Cl)c3)cn2)cn1 [Example 207]
IC50 (FaDu cells): 0.89 µmol/L | IC50 (HT-29 cells): 0.67 µmol/L | IC50 (HCT-116 cells): 0.83 µmol/L

COc1ccc(C(=O)Nc2cn(Cc3ccc(Cl)s3)cn2)cc1OC [Example 173]
(100%-inhibition rate of cell proliferation) at 1 μmol/L, FaDu (FaDu cells): 21.4% | (100%-inhibition rate of cell proliferation) at 1 μmol/L, HT-29 (HT-29 cells): 21.6% | (100%-inhibition rate of cell proliferation) at 1 μmol/L, HCT-116 (HCT-116 cells): 29.5%

CC(C)Oc1ccc(C(=O)Nc2cn(Cc3cccc(Cl)c3)cn2)cc1 [Example 140]
viability at 1 µM (FaDu cells; Homo sapiens): 81.8% | viability at 1 µM (HT-29 cells; Homo sapiens): 83% | viability at 1 µM (HCT-116 cells; Homo sapiens): 31.4%

O=C(Nc1cn(Cc2cccc(C(F)(F)F)c2)cn1)c1cccnn1 [Example 182]
IC50 (HT-29 cells): 5.6 µmol/L | IC50 (HCT-116 cells): > 10 µmol/L

O=C(/C=C/c1cccnc1)Nc1cn(Cc2cccc(C(F)(F)F)c2)cn1 [Example 103]
IC50 (FaDu cells; Homo sapiens): 0.6 µmol/L | IC50 (HT-29 cells; Homo sapiens): 0.6 µmol/L | IC50 (HCT-116 cells; Homo sapiens): 0.87 µmol/L

Cc1cccc(/C=C/C(=O)Nc2cn(Cc3cccc(Cl)c3)cn2)c1 [Example 73]
IC50 (FaDu cells): 0.85 µmol/L | IC50 (HT-29 cells): 1.49 µmol/L | IC50 (HCT-116 cells): 4.53 µmol/L

COC(=O)c1ccc(/C=C/C(=O)Nc2cn(Cc3cccc(Cl)c3)cn2)cn1 [Example 25, Methyl (E)-5-(3-((1-(3-chlorobenzyl)-1H-imidazol-4-yl)amino)-3-oxoprop-1-en-1-yl)picolinate]
IC50 (FaDu cells; Homo sapiens): 0.89 µmol/L | IC50 (HT-29 cells; Homo sapiens): 2.61 µmol/L | IC50 (HCT-116 cells; Homo sapiens): > 10 µmol/L

COc1ccc(C(=O)Nc2cn(Cc3ccc(C(C)C)cc3)cn2)cc1OC [Example 168]
(100%-inhibition rate of cell proliferation) at 1 μmol/L, FaDu (FaDu cells): 32.3% | (100%-inhibition rate of cell proliferation) at 1 μmol/L, HT-29 (HT-29 cells): 8.6% | (100%-inhibition rate of cell proliferation) at 1 μmol/L, HCT-116 (HCT-116 cells): 32.1%

COc1ccc(C(=O)Nc2cn(Cc3cccc(Oc4ccccc4)c3)cn2)cc1OC [Example 297]
(100%-inhibition rate of cell proliferation) at 1 μmol/L, FaDu (FaDu cells): 31.4% | (100%-inhibition rate of cell proliferation) at 1 μmol/L, HT-29 (HT-29 cells): 33.7% | (100%-inhibition rate of cell proliferation) at 1 μmol/L, HCT-116 (HCT-116 cells): 56.6%

O=C(Nc1cn(Cc2cccc(C(F)(F)F)c2)cn1)c1cc2ccccc2cn1 [Example 178]
IC50 (HT-29 cells): 8.13 µmol/L | IC50 (HCT-116 cells): 9.6 µmol/L

O=C(/C=C/c1cc(O)ccc1O)Nc1cn(Cc2cccc(C(F)(F)F)c2)cn1 [Example 235, (2E)-3-(2,5-Dihydroxyphenyl)-N-{1-[3-(trifluoromethyl)benzyl]-1H-imidazol-4-yl}prop-2-enamide Hydrochloride]
IC50 (HT-29 cells; Homo sapiens): 8.77 µmol/L | IC50 (HCT-116 cells; Homo sapiens): 3.84 µmol/L

O=C(Nc1cn(Cc2cccc(C(F)(F)F)c2)cn1)c1ccccc1CO [Example 250, 2-(Hydroxymethyl)-N-{1-[3-(trifluoromethyl)benzyl]-1H-imidazol-4-yl}benzamide]
IC50 (HT-29 cells; Homo sapiens): 8.19 µmol/L | IC50 (HCT-116 cells; Homo sapiens): > 10 µmol/L

O=C(Nc1cn(Cc2cccc(C(F)(F)F)c2)cn1)c1ccc(-c2ccc(CO)nc2)cc1 [Example 246, 4-[6-(Hydroxymethyl)pyridin-3-yl]-N-{-[3-(trifluoromethyl)benzyl]-1H-imidazol-4-yl}benzamide]
IC50 (HT-29 cells; Homo sapiens): 6.36 µmol/L | IC50 (HCT-116 cells; Homo sapiens): 6.72 µmol/L

COc1ccc(NC(=O)c2cn(Cc3cccc(Cl)c3)cn2)cn1 [Example 263]
IC50 (HT-29 cells): 8.49 µmol/L | IC50 (HCT-116 cells): > 10 µmol/L

O=C(Nc1cn(Cc2cccc(C(F)(F)F)c2)cn1)c1ccc2ncccc2n1 [Example 184]
IC50 (HT-29 cells): 9.07 µmol/L | IC50 (HCT-116 cells): 8.16 µmol/L

C=Cc1ncc(C(=O)Nc2cn(Cc3cccc(C(F)(F)F)c3)cn2)cc1F [Example 99, 6-Ethenyl-5-fluoro-N-{1-[3-(trifluoromethyl)benzyl]-1H-imidazol-4-yl}nicotinamide]
IC50 (HT-29 cells; Homo sapiens): 2.52 µmol/L | IC50 (HCT-116 cells; Homo sapiens): 6.12 µmol/L

COc1ccc(OC)c(/C=C/C(=O)Nc2cn(Cc3cccc(C(F)(F)F)c3)cn2)c1 [Example 233]
IC50 (HT-29 cells; Homo sapiens): 5.46 µmol/L | IC50 (HCT-116 cells; Homo sapiens): 4.35 µmol/L

COc1ccc(C(=O)Nc2cn(Cc3cccc(Cl)c3)cn2)c(OC)n1 [Example 189]
IC50 (HT-29 cells): 4.64 µmol/L | IC50 (HCT-116 cells): 4.94 µmol/L

O=C(Nc1cn(Cc2cccc(C(F)(F)F)c2)cn1)c1cc2cnccc2s1 [Example 194]
IC50 (HT-29 cells): 2.84 µmol/L | IC50 (HCT-116 cells): 6.05 µmol/L

COc1ccc(NC(=O)c2cn(Cc3cc(F)c(F)c(F)c3)cn2)cn1 [Example 254]
IC50 (HT-29 cells): 6.45 µmol/L | IC50 (HCT-116 cells): > 10 µmol/L
